Test results from ChEMBL document CHEMBL1125942, “A potent, simple derivative of an analog of the CC-1065 alkylation subunit” (Bioorg Med Chem Lett, 1991).
Values after ≈ are worked out from the molar mass of the structure shown.

Legend:
L1210 [1] = assay: Compound was tested for relative inhibitory concentration required for 50% cell growth inhibition against L1210 mouse lymphocytic leukemia to untreated controls; format: functional
L1210 [2] = assay: Concentration required for 50% cell growth inhibition against L1210 mouse lymphocytic leukemia; format: functional, cell-based

| Relative IC50 (L1210 [1]) | IC50 (L1210 [2]) [ng/mL] | SMILES |
| --- | --- | --- |
| 0.0005 | 2000 (≈ 10100 nM) | OC1=CC2=NCC3CC23c2ccccc21 (racemic) |
| 0.01 | 100 (≈ 255 nM) | CC(C)(C)OC(=O)NNC(=O)N1CC(CCl)c2c1cc(O)c1ccccc21 (racemic) |
| 0.02 | 50 (≈ 168 nM) | CC(C)(C)OC(=O)N1CC2CC23C1=CC(=O)c1ccccc13 (racemic) |

| SMILES | Relative IC50 (L1210 [1]) | IC50 (L1210 [2]) [ng/mL] |
| --- | --- | --- |
| Cl.NNC(=O)N1CC(CCl)c2c1cc(O)c1ccccc21 (racemic) | 1 | 1 |
| COc1c(O)c2c(c3cc(C(=O)N4CCc5c4c(O)c(OC)c4[nH]c(C(=O)N6C[C@H]7C[C@@]78C6=CC(=O)c6[nH]cc(C)c68)cc54)[nH]c13)CCN2C(N)=O [(+)-CC-1065] | 100 | 0.01 (≈ 0.0142 nM) |
